Measurements: patent US10086108B2, “Hydrogels and use thereof in anastomosis procedures” (The United States of America, as represented by the …, priority 2015, dated 2018)

Tests used:
Assay type in all cases: physicochemical
[1] = Oscillatory rheology of peptide hydrogels (formation, shear-thin/recovery, UV photodisruption); details: for Storage modulus (G′) of formed gel, regime I time sweep: 1% w/v peptide, pH 7.4, 6 rad/s, 0.2% strain, APC1 after 30 minutes; for Onset of gelation after triggering: regime I
Description: Oscillatory rheology was employed to study the rheological behavior of each gel under experimental conditions that mimic its use during the anastomosis procedure. Here, the storage modulus (G′), a measure of the gels' mechanical rigidity, is monitored in the rheometer under environmental conditions that mimic: (1) the initial (sol-gel) formation of the hydrogel in the syringe; (2) shear thinning of the material as it passes through the syringe needle during injection with subsequent hydrogel recovery in the vessel lumen; and (3) the disruption of the gel network (gel-sol) by UV photolysis after suturing. Monitoring gel behavior in a rheometer, although not exactly capturing the gel's response during the actual anastomosis procedure, allows quantitative and reproducible measurement of gel mechanical properties under highly controlled conditions. […] In regime I, the rate of hydrogel formation (sol-gel) is assessed in a time-sweep experiment that monitors the evolution of G′ after peptide folding and assembly is triggered for a 1% w/v solution of peptide. […] After completion of the initial time sweep, 1000% strain is applied to the material for 30 seconds in regime II to mimic syringe delivery of the gel. This application of strain results in an immediate decrease in G′ indicative of shear thinning that results in a viscous gel capable of flow. After the 30 seconds, the applied strain is decreased to 0.2% and the material is allowed to recover. […] Lastly, using an optically clear parallel plate in the rheometer, the recovered hydrogel is subjected to irradiation by UV light (365 nm) for the first 10 minutes of regime III, where the effect of photolysis on the storage modulus is monitored over time. […] Importantly, irradiation by UV rapidly disrupts the gel network affording a viscous material, which should be capable of dissolution when exposed to the shear of blood flow. Independent frequency- and strain-sweep measurements were also performed as shown in FIGS. 14A-14B and FIGS. 15A-15B.
Application of 1000% strain in the first 30 sec. of regime II quickly thins the APC2 gel. However, the resulting viscous material is unable to self-heal effectively and recovers only about 5% of its original mechanical rigidity. Finally, irradiation in regime III disrupts the weakly recovered gel. Although APC2 is initially able to form a very rigid gel, its inability to recover after being shear thinned precludes it use in the anastomosis procedure. […] Here, incorporation of the cage near the strand termini of the hairpin hampers the ability of the network to recover. Based on this rheological assessment, the APC1 gel was chosen for further study.
Oscillatory Rheology. Rheology experiments were performed on an AR-G2 Rheometer (TA Instruments, DE) equipped with a 25 mm stainless steel parallel plate geometry using a 0.5 mm gap height. A 2 wt % peptide solution was prepared by dissolving lyophilized peptide in water and chilling on ice. An equal volume of chilled 100 mM BTP, 300 mM NaCl, pH 7.4 buffer was added and gently mixed, then immediately transferred to the rheometer plate equilibrated at 5° C. In separate experiments, APC1 gels were prepared in syringe, or as a preformed slab, and incubated for 1 hour at 37° C. Gels were then shear-thinned delivered, or transferred as an intact gel slab, to the rheometer plate, respectively. A temperature ramp from 5° C. to the desired temperature (25° C. or 37° C.) over 100 seconds was performed, followed by a 60 minute dynamic time sweep using an angular frequency of 6 rads and application of 0.2% strain to monitor the storage (G′) and loss (G″) modulus of the hydrogel. The resulting hydrogel was further evaluated by performing a frequency sweep from 0.1 to 100 rads and a strain sweep at 6 rads from 0.1% to 1000% strain. Oil was placed around the sample and on the plate to prevent evaporation. […]

[2] = Circular dichroism spectroscopy of peptide folding and assembly; details: for Folding state by CD under gelation conditions / Folding state by CD in water: 1% w/v; for Folding state by CD under gelation conditions: pH 7.4, 150 mM NaCl, 25 or 37° C.; for Folding state by CD in water: 5° C.; for Temperature needed to induce folding and assembly: pH 7.4 buffer with NaCl, ellipticity at 216 nm vs temperature
Procedure: The ability of APC1 and APC2 to fold and associate into β-sheet rich assemblies was monitored using circular dichroism (CD) spectroscopy. In water at 5° C., the CD spectra of 1% w/v solutions of APC1 and APC2 indicate that the peptides are unfolded under these conditions (FIG. 4A). […] The NaCl screens the lysine point charges and increasing the temperature drives the hydrophobic effect, both of which favor folding and assembly. The exact temperatures needed to induce folding and assembly of each peptide were determined by monitoring the mean ellipticity at 216 nm as a function of temperature as shown in FIG. 13. In all the CD experiments, self-supporting hydrogels of both peptides (pH 7.4, 150 mM NaCl) form directly in the cuvette after folding is triggered. The same procedure can be used to form the gels directly in a syringe. […] Also evident in the spectra are absorptions due to the indoline cage, which occur in the near UV-CD (240-380 nm). […] However, when the peptides fold and assemble, the indoline ring is placed into a chiral environment, such as that provided by the fibril's hydrophobic interior. […] Importantly, it also supports the assertion that if the glutamate's negative point-charge were to be unmasked when the peptides are in the folded and assembled fibrillar state, that this event should be disruptive.
Circular Dichroism (CD). CD spectra of peptide hydrogels were collected on an AVIV 410 spectropolarimeter (AVIV Biomedical Inc., NJ). For wavelength spectra of APC1 and APC2 in water, a 1 wt % solution of peptide was prepared by dissolving lyophilized peptide in water at 5° C. The peptide solution was transferred to a 0.1 mm path length cylindrical cell and placed in the spectrometer sample holder equilibrated at 5° C. For temperature-dependent folding of 1 wt % hydrogels, a 2 wt % peptide solution was first prepared by dissolving lyophilized peptide in water and chilling on ice. Then, an equal volume of chilled 100 mM BTP, 300 mM NaCl, pH 7.4 buffer was added, gently mixed, and quickly transferred to a 0.1 mm path length cylindrical cell and placed in the spectrometer sample holder equilibrated at 5° C. The CD spectra were collected from 200-260 nm or 200-400 nm as a function of temperature at 5 degree increments from 5-80° C. with 10 min equilibration at each temperature. For UV photolysis of 1% w/v hydrogels, the solution was prepared in a manner identical to the folding studies and placed in the spectrometer at 25° C. or 37° C. for 30 minutes. The hydrogel within the cylindrical cell was irradiated for the specified time interval, followed by recording the mean residue ellipticity at 216 nm. For APC1, irradiation and spectra were obtained at 10 second intervals for the first 60 seconds, then at 1 minute intervals for a total of 5 minutes. For APC2, irradiation and spectra were obtained at 1 minute intervals for a total of 15 minutes. At the final time point, a wavelength spectrum from 200-400 nm of each peptide was obtained. Peptide concentration was determined by UV spectroscopy using ε220nm=16448 M^−1cm^−1 for cAPC1 and cAPC2 and ε220nm=31144 M^−1cm^−1 for APC1 and APC2. The mean residue ellipticity [θ] was calculated from [θ]=(θobs/10 lc)/r, where θobs is the measured ellipticity in degrees, l is the path length in centimeters, c is the concentration in molar, and r is the number of residues in the sequence. Each CD spectra shown is representative of three individual experiments, where each data point represents the average of 30 measurements, with a variance in ellipticity of 0.2 millidegrees at each wavelength.

[3] = UV photolysis of the indoline cage followed by absorbance at 248 nm; details: absorbance at 248 nm during irradiation
Description: FIGS. 6A and 6B test that assertion by following the fate of both the 4-methoxy-7-nitroindoline (MNI) group as well as the caged peptide during photolysis. In FIG. 6A, the absorbance of APC1 at 248 nm is followed as a function of time during irradiation. Absorbance at this wavelength is mainly due to the intact indoline cage. […] In FIG. 6B, photolysis of the caged peptide is followed by RP-HPLC. […] Mass spectroscopy was used to confirm the identity of both species.

Substance	Storage modulus (G′) of formed gel, regime I time sweep [1]	Onset of gelation after triggering ([1]; 1% w/v)	Storage modulus (G′) after UV irradiation, regime III ([1]; 365 nm, 10 minutes, recovered 1% w/v gel) [Pa]	Storage modulus (G′) recovered after shear thinning ([1]; 1000% strain for 30 seconds, then 0.2% strain, 1% w/v) [Pa]	Folding state by CD under gelation conditions [2]	Folding state by CD in water [2]	Temperature needed to induce folding and assembly [2] [°C]	Irradiation time to almost complete photolysis of the indoline cage [3] [s]
Ac-VKVKVKGKV^DPPTKZEVKVKV-NH2 [APC1]	~2,500 Pa	within the first few minutes	~180	1900	β-sheet secondary structure	unfolded	25	90
VKVKGKVKV^DPPTKVEZKVKV [APC2]	20,000 Pa	significant lag phase	–	–	β-sheet secondary structure	unfolded	37	–
